The values below come from ChEMBL document CHEMBL1152465, “Comparative evaluation of the inhibitory activities of a series of pyrimidinedione congeners that inhibit human immunodeficiency virus types 1 and 2” (Antimicrob Agents Chemother, 2008).

Data set [1] concerns the target Human immunodeficiency virus type 1 reverse transcriptase (Human immunodeficiency virus 1, UniProt Q72547, K103N). Kind of data set: Inhibition of HIV1 reverse transcriptase K103N mutant assessed as 32P-labeled GMP incorporation into nascent DNA strand.
Data set [2] has as its system Human immunodeficiency virus 2. Kind of data set: Antiviral activity against HIV2 ROD infected in human CEM-SS cells assessed as inhibition of virus-induced cytopathic effect by XTT assay. The settings on record: Human immunodeficiency virus 2, ISOLATE ROD, CEM-SS; read-out: EC50. It is filed as functional, organism-based, ISOLATE ROD.
For data set [3], the system named is Human immunodeficiency virus 2. The experiment in a line: Antiviral activity against HIV2 assessed as inhibition of viral single round replication at early time point. The format is functional, organism-based.
The subject of data set [4] is Human immunodeficiency virus 1. Kind of data set: Antiviral activity against HIV1 infected in human HeLa cells expressing CD4-LTR assessed as inhibition of viral entry-related beta galactosidase expression treated for 2 hrs followed by drug wash out measured after 48 hrs by MAGI assay. The format is functional, organism-based. The settings on record: Human immunodeficiency virus 1, HeLa.

Data set [5] relates to Human immunodeficiency virus 2. Kind of data set: Antiviral activity against HIV2 assessed as inhibition of viral replication treated at time points after viral entry into host cells. It is filed as functional, organism-based.
Data set [6] is described as follows: Therapeutic index, ratio of TC50 for human CEM-SS cells to EC50 for HIV1 RF infected in human CEM-SS cells. The format is cell-based. The settings on record: read-out: TI.
A further data set concerns HeLa. Kind of data set: Inhibition of HIV1 gp120/CD4 interaction assessed as inhibition of gp120 and gp41 coexpressing human HL2/3 cell fusion to CD4 expressing human HeLa cells treated for 2 hrs measured after 48 hrs by chemiluminescence assay. Particulars: Human immunodeficiency virus 1. The format is cell-based.
In data set [7] the target is Human immunodeficiency virus type 1 reverse transcriptase (Human immunodeficiency virus 1, UniProt Q72547). Kind of data set: Inhibition of wild type HIV1 reverse transcriptase assessed as 32P-labeled GMP incorporation into nascent DNA strand.
In data set [8] the test system is Human immunodeficiency virus 1. Kind of data set: Antiviral activity against HIV1 infected in human CEM-SS cells assessed as inhibition of viral replication and virus-induced cytopathic effect by dose-response curve analysis. It is filed as functional. Particulars: Human immunodeficiency virus 1, CEM-SS.
Data set [9] can be described thus: Therapeutic index, ratio of TC50 for human CEM-SS cells to EC50 for HIV2 ROD infected in human CEM-SS cells. The format is cell-based. The settings on record: CEM-SS cells, read-out: TI.
In data set [10] the test system is Human immunodeficiency virus 1. Kind of data set: Antiviral activity against HIV1 RF infected in human CEM-SS cells assessed as inhibition of virus-induced cytopathic effect by XTT assay. The format is functional, organism-based. The settings on record: Human immunodeficiency virus 1, RF.
Data set [11] has as its system Human immunodeficiency virus 2. The experiment in a line: Inhibition of HIV2 reverse transcriptase assessed as 32P-labeled GMP incorporation into nascent DNA strand at highest concentration.
A short description of data set [12]: Therapeutic index, ratio of TC50 human HeLa cells expressing CD4-LTR to EC50 for HIV1 entry inhibition in human HeLa cells expressing CD4-LTR. It is filed as cell-based. The settings on record: read-out: TI.
Data set [13] can be described thus: Cytotoxicity against human HeLa cells expressing CD4-LTR by XTT assay. It is filed as cell-based. Particulars: read-out: TC50 (the source's name).
Data set [14] can be described thus: Cytotoxicity against human CEM-SS cells by XTT assay. The settings on record: read-out: TC50 (the source's name). The format is cell-based.
The subject of data set [15] is Human immunodeficiency virus 2. Kind of data set: Inhibition of HIV2 reverse transcriptase.
Data set [16] concerns Simian immunodeficiency virus. Kind of data set: Antiviral activity against SIV MAC251 infected in human 174xCEM cells assessed as inhibition of virus-induced cytopathic effect. The format is functional, organism-based.
Data set [17] relates to Human immunodeficiency virus 2. Kind of data set: Antiviral activity against HIV2 infected in human CEM-SS cells assessed as inhibition of viral replication and virus-induced cytopathic effect by dose-response curve analysis. It is filed as functional. The settings on record: Human immunodeficiency virus 2, CEM-SS.

Active and inactive are the calls of the source.

For the molecule `CCc1c(Sc2cc(C)cc(C)c2)n(Cc2ccccc2)c(=O)[nH]c1=O`, the IC50 in [1] is 4.05 µM; in data set [7], 15.6 µM. For the same molecule, the EC50 in data set [2] was found to be 0.4 µM; in data set [4] it was 0.18 µM; in [10], 0.0018 µM. Moreover, in data set [3], the result was Active. The result in [5], in data set [11], in data set [15] and in data set [16] was inactive. Besides, the selectivity ratio in data set [6] was 598000; in data set [9] it was over 2490; in [12], 5980. In the data set with HeLa, the inhibition entry is “inactive”. In addition, in [8], the EC99 is 1 µM. The CC50 in data set [13] and in data set [14] was 1100 µM in each case.

Take `CCc1c(C(=O)c2cc(C)cc(C)c2)n(CCC2C=CCC2)c(=O)[nH]c1=O` (stereo unspecified): the IC50 in data set [1] is 1.88 µM; in data set [7], 0.075 µM. Moreover, the EC50 in data set [2] stood at 0.2 µM; in [4], 0.07 µM; in data set [10] it was 0.054 µM. Moreover, the outcome in [3] was Active. The outcome in data set [5], in data set [11], in data set [15] and in [16] was inactive. The selectivity ratio in [6] came out at 1680; in data set [9], 421; in data set [12] it was 1310. In addition, the inhibition result in the data set with HeLa is “inactive”. In addition, the EC99 in data set [8] was found to be 1 µM. Further, the CC50 in [13] and in data set [14] was 92 µM in each case.

On to `Cc1cc(C)cc(C(=O)c2c(C(C)C)c(=O)[nH]c(=O)n2CC2=CCCC2)c1`, for which the values for the IC50 in data set [1] and in data set [7] were 1.6 µM and 0.02 µM, respectively. Further, the EC50 was determined as 0.1 µM in data set [2], 0.009 µM in [4] and 0.0001 µM in [10]. In [3], the outcome was Active. Moreover, the outcome in [5], in data set [11], in data set [15] and in data set [16] was inactive. The selectivity ratio in data set [6] is 523000; in data set [9], 122; in data set [12] it was 2290. Moreover, the EC99 in data set [17] was found to be 1 µM; in [8], 0.001 µM. In addition, the inhibition entry in the data set on HeLa was “inactive”. Moreover, the CC50 in [13] was found to be 20.8 µM; in data set [14] it was 16.7 µM.

As for `Cc1cc(C)cc(C(=O)c2c(C(C)C)c(=O)[nH]c(=O)n2CC2CC=CC2)c1`, the IC50 in [1] worked out at 23 µM; in data set [7] it was 0.651 µM. Moreover, the values for the EC50 in [2], in data set [4] and in data set [10] were 15.5 µM, 0.41 µM and 0.0022 µM, respectively. Also, in [3], the outcome was Active. In addition, the outcome in [5], in data set [11], in data set [15] and in data set [16] was inactive. Moreover, the values for the selectivity ratio in data set [6], in data set [9] and in [12] were 491000, over 75 and 2690, respectively. The values for the EC99 in data set [17] and in [8] were 100 µM and 1 µM, respectively. Further, the inhibition entry in the data set with HeLa was “inactive”. The CC50 in [13] was determined as 1120 µM; in [14] it was 1100 µM.

`CCc1c(Oc2cc(C)cc(C)c2)n(CC2CC2)c(=O)[nH]c1=O`: the IC50 was 0.21 µM in data set [1] and 0.016 µM in data set [7]. Besides, the EC50 in [2] amounted to 0.6 µM; in [4] it was 0.006 µM; in data set [10] it was 0.006 µM. Further, the result in [3] was Active. Besides, the outcome in data set [5], in [11], in [15] and in data set [16] was inactive. Also, the selectivity ratio in data set [6] was 215000; in [9] it was over 2100; in data set [12] it was 202000. Moreover, the figures for the EC99 in [17] and in data set [8] were 10 µM and 1 µM, respectively. For the same molecule, the inhibition result with HeLa was “inactive”. The CC50 was found to be 1280 µM in [13] and 1300 µM in data set [14].

`Cc1cc(C)cc(Oc2c(C(C)C)c(=O)[nH]c(=O)n2CC2CCC2)c1`: the IC50 in [1] worked out at 0.213 µM; in [7], 0.12 µM. Further, the EC50 in [2] was 1.3 µM; in [4], 0.26 µM; in [10], 0.0005 µM. Also, in data set [3], the result was Active. Further, the outcome in data set [5], in [11], in data set [15] and in data set [16] was inactive. Also, the selectivity ratio in data set [6] is 32200; in data set [9] it was 12.2. The inhibition entry with HeLa is “inactive”. The EC99 in data set [8] is 1 µM. In addition, the CC50 in data set [13] came to 16.6 µM; in [14], 16.1 µM.

For `Cc1cc(C)cc(C(=O)c2c(C(C)C)c(=O)[nH]c(=O)n2CC2CC2)c1`, the values for the IC50 in data set [1] and in [7] were 2.7 µM and 1.97 µM, respectively. For the same molecule, the EC50 in [2] amounted to 0.1 µM; in data set [4] it was 0.012 µM; in data set [10], 0.0005 µM. The outcome in [3] was Active. In addition, the outcome in data set [5], in data set [11], in data set [15] and in data set [16] was inactive. The selectivity ratio in data set [6] came to 2.55e+06; in [9], 13000; in [12] it was 101000. For the same molecule, the EC99 in [17] was found to be 10 µM; in data set [8] it was 0.001 µM. Besides, the inhibition entry with HeLa is “inactive”. Besides, the CC50 in data set [13] came to 1180 µM; in data set [14], 1200 µM.

On to `CCc1c(C(=O)c2cc(C)cc(C)c2)n(CC2=CCCC2)c(=O)[nH]c1=O`, for which the IC50 in data set [1] was found to be 1.93 µM; in data set [7] it was 0.088 µM. Besides, the EC50 in data set [2] was 1.4 µM; in data set [4], 0.11 µM; in data set [10] it was 0.0025 µM. Besides, in data set [3], the outcome was Active. Besides, the result in data set [5], in [11], in data set [15] and in data set [16] was inactive. The selectivity ratio amounted to 23700 in data set [6], 42.6 in data set [9] and 536 in data set [12]. In addition, the inhibition result in the data set with HeLa was “inactive”. In data set [8], the EC99 came out at 1 µM. Moreover, the CC50 in data set [13] and in data set [14] was 60.5 µM each time.

Turning to `Cc1cc(C)cc(Oc2c(C(C)C)c(=O)[nH]c(=O)n2Cc2ccccc2)c1`, the IC50 in data set [1] is 0.975 µM; in [7], 0.114 µM. Further, the values for the EC50 in data set [2], in data set [4] and in data set [10] were 0.1 µM, 0.009 µM and 0.014 µM, respectively. In data set [3], the outcome was Active. Further, the outcome in [5], in data set [11], in [15] and in data set [16] was inactive. Moreover, the selectivity ratio came out at 2720 in data set [6], 278 in data set [9] and 4180 in data set [12]. Besides, in the data set with HeLa, the inhibition entry is “inactive”. Further, the EC99 in data set [8] was found to be 1 µM. Further, the CC50 in [13] and in [14] was 38.2 µM in each case.
